In patent US20230212172A1, “ARYLACETAMIDE ANALOGS OF PIPERAZINE-[1,2,4]TRIAZOLO[4,3-B]PYRIDAZINES” (University of Vermont and State Agricultural College, priority 2020, published 2023):
Like-named read-outs stand apart in the source and are kept apart here.

Assays:
C. parvum = assay: In vitro inhibition of C. parvum development in HCT-8 cells; type: cell-based; conditions: Cryptosporidium parvum
cryptosporidiosis = conditions: cited from earlier work
[1] = HCT-8 cells, Table 4, read-out: EC50 for inhibition of C. parvum development in HCT-8 cells
[2] = average EC50, C. parvum in HCT-8 cells, read-out: Cp HTC-8 Avg EC50

EC50 (C. parvum; [1]) [µM]	EC50 (C. parvum; [2]) [µM]	SMILES	efficacy in cryptosporidiosis (cryptosporidiosis; AIDS patients)	efficacy in cryptosporidiosis (cryptosporidiosis; children)
16	–	O=C(Cc1ccc(Cl)c(Cl)c1)N1CCN(c2ccc3nnc(Cc4ccccc4)n3n2)CC1 [Example 10249, 1-(4-{3-benzyl-[1,2,4]triazolo[4,3-b]pyridazin-6-yl}piperazin-1-yl)-2-(3,4-dichlorophenyl)ethan-1-one]	–	–
11.5	–	O=C(Cc1ccc(S(F)(F)(F)(F)F)cc1)N1CCN(c2ccc3nncn3n2)CC1 [Example 10441, 2-[4-(pentafluoro-λ^6-sulfanyl)phenyl]-1-(4-{[1,2,4]triazolo[4,3-b]pyridazin-6-yl}piperazin-1-yl)ethan-1-one]	–	–
1.12	–	O=C(Cc1cccc(S(F)(F)(F)(F)F)c1)N1CCN(c2ccc3nncn3n2)CC1 [Example 10442, 2-[3-(pentafluoro-λ^6-sulfanyl)phenyl]-1-(4-{[1,2,4]triazolo[4,3-b]pyridazin-6-yl}piperazin-1-yl)ethan-1-one]	–	–
0.407	0.407	O=C(Cc1cc(Cl)cc(C(F)(F)F)c1)N1CCN(c2ccc3nncn3n2)CC1 [Example 10479, 2-[3-chloro-5-(trifluoromethyl)phenyl] -1-(4-{[1,2,4]triazolo[4,3-b]pyridazin-6-yl}piperazin-1-yl)ethan-1-one]	–	–
2	–	O=C(Cc1ccc(C(F)(F)F)c(F)c1)N1CCN(c2ccc3nncn3n2)CC1 [Example 10480, 2-[3-fluoro-4-(trifluoromethyl)phenyl] -1-(4-{[1,2,4]triazolo[4,3-b]pyridazin-6-yl}piperazin-1-yl)ethan-1-one]	–	–
0.88	0.88	O=C(Cc1cc(F)cc(Cl)c1)N1CCN(c2ccc3nncn3n2)CC1 [Example 10483, 2-(3-chloro-5-fluorophenyl)-1-(4-{[1,2,4]triazolo[4,3-b]pyridazin-6-yl}piperazin-1-yl)ethan-1-one]	–	–
5.45	–	O=C(Cc1ccc(C(F)(F)F)cc1)N1CCN(c2ccc3nncn3n2)CC1 [Example 10484, 1-(4-{[1,2,4]triazolo[4,3-b]pyridazin-6-yl}piperazin-1-yl)-2-[4-(trifluoromethyl)phenyl] ethan-1-one]	–	–

The remaining lines, values behind:

SMILES	EC50 (C. parvum; [1]) [µM]	EC50 (C. parvum; [2]) [µM]	efficacy in cryptosporidiosis (cryptosporidiosis; AIDS patients)	efficacy in cryptosporidiosis (cryptosporidiosis; children)
O=C(Cc1c(F)c(F)c(F)c(F)c1F)N1CCN(c2ccc3nncn3n2)CC1 [Example 10090, 2-(2,3,4,5,6-pentafluorophenyl)-1-(4-{[1,2,4]triazolo[4,3-b]pyridazin-6-yl}piperazin-1-yl)ethan-1-one]	> 50	–	–	–
O=C(Cc1ccc(Br)c(Cl)c1)N1CCN(c2ccc3nncn3n2)CC1 [Example 10238, 2-(4-bromo-3-chlorophenyl)-1-(4-{[1,2,4]triazolo[4,3-b]pyridazin-6-yl}piperazin-1-yl)ethan-1-one]	0.251	0.251	–	–
O=C(Cc1ccc(Cl)c(Br)c1)N1CCN(c2ccc3nncn3n2)CC1 [Example 10239, 2-(3-bromo-4-chlorophenyl)-1-(4-{[1,2,4]triazolo[4,3-b]pyridazin-6-yl}piperazin-1-yl)ethan-1-one]	0.121	0.121	–	–
O=C(Cc1ccc(Br)c(F)c1)N1CCN(c2ccc3nncn3n2)CC1 [Example 10240, 2-(4-bromo-3-fluorophenyl)-1-(4-{[1,2,4]triazolo[4,3-b]pyridazin-6-yl}piperazin-1-yl)ethan-1-one]	0.773	0.773	–	–
O=C(Cc1ccc(F)c(Br)c1)N1CCN(c2ccc3nncn3n2)CC1 [Example 10241, 2-(3-bromo-4-fluorophenyl)-1-(4-{[1,2,4]triazolo[4,3-b]pyridazin-6-yl}piperazin-1-yl)ethan-1-one]	0.232	0.232	–	–
CC(C)(C)OC(=O)NCCCc1ccc(CC(=O)N2CCN(c3ccc4nncn4n3)CC2)cc1 [Example 10242, Tert-butyl N-(3-{4-[2-oxo-2-(4-{[1,2,4]triazolo[4,3-b]pyridazin-6-yl}piperazin-1-yl)ethyl]phenyl}propyl)carbamate]	> 50	–	–	–
O=C(Cc1ccc(Cl)c(Cl)c1)N1CCN(c2ccc3nnc(-c4ccnc(C(F)(F)F)c4)n3n2)CC1 [Example 10262, 2-(3,4-dichlorophenyl)-1-(4-{3-[2-(trifluoromethyl)pyridin-4-yl]-[1,2,4]triazolo[4,3-b]pyridazin-6-yl}piperazin-1-yl)ethan-1-one]	6.11	–	–	–
O=C(Cc1ccc2c(c1)OCO2)N1CCN(c2ccc3nncn3n2)CC1 [Example 10422, 2-(2H-1,3-benzodioxol-5-yl)-1-(4-{[1,2,4]triazolo[4,3-b]pyridazin-6-yl}piperazin-1-yl)ethan-1-one]	10.4	–	–	–
O=C(Cc1ccc(Cl)c(C(F)(F)F)c1)N1CCN(c2ccc3nncn3n2)CC1 [Example 10481, 2-[4-chloro-3-(trifluoromethyl)phenyl] -1-(4-{[1,2,4]triazolo[4,3-b]pyridazin-6-yl}piperazin-1-yl)ethan-1-one]	0.272	0.272	–	–
O=C(Cc1ccc(F)c(C(F)(F)F)c1)N1CCN(c2ccc3nncn3n2)CC1 [Example 10482, 2-[4-fluoro-3-(trifluoromethyl)phenyl] -1-(4-{[1,2,4]triazolo[4,3-b]pyridazin-6-yl}piperazin-1-yl)ethan-1-one]	0.0687	0.0686	–	–
O=C(Cc1cc(F)cc(F)c1)N1CCN(c2ccc3nncn3n2)CC1 [Example 10485, 2-(3,5-difluorophenyl)-1-(4-{[1,2,4]triazolo[4,3-b]pyridazin-6-yl}piperazin-1-yl)ethan-1-one]	5.66	–	–	–
CC(=O)Oc1ccccc1C(=O)Nc1ncc([N+](=O)[O-])s1 [Nitazoxanide]	–	–	no more effective than placebo	partial efficacy
O=C(Cc1cc(C(F)(F)F)cc(C(F)(F)F)c1)N1CCN(c2ccc3nncn3n2)CC1 [SLU-0010495, 2-[3,5-bis(trifluoromethyl)phenyl]-1-(4-{[1,2,4]triazolo[4,3-b]pyridazin-6-yl}piperazin-1-yl)ethan-1-one]	–	0.319	–	–
